Test results reported in patent US6001880A, “Alkylenediamine derivative, anti-ulcer drug, and antibacterial drug” (Shiseido Co., Ltd., priority 1997, dated 1999).

Tested on: isolated gastric fundic gland
Assay: CAP: Acid Secretion Inhibition Test In Vitro ([14C]-aminopyrine uptake)
Type: cell-based, rabbit (male Japanese White)
Details: Oryctolagus cuniculus; final concentration 10^-5 M; histamine 10^-5 M stimulation; read-out: CAP: acid secretion inhibitory rate
In short: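 Collagenase-isolated rabbit gastric fundic glands (1.6×10^6 cells/ml) were stimulated with 10^-5 M histamine in the presence of test compound and [14C]-aminopyrine, then shaken 40 min at 37 °C. Pellet versus supernatant radioactivity, corrected with a 20 mM NaSCN sample, gives specific aminopyrine accumulation as the acid-secretion index; duplicates.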

Compound	inhibition at 10 µM [%]
CCN(CC)CCNC(=O)c1cc(OCC=C(C)C)cc(OCC=C(C)C)c1 [Example 14]	100
CCN(CC)CCNC(=O)c1cc(OC/C=C(\C)CCC=C(C)C)ccc1OC/C=C(\C)CCC=C(C)C [Example 16]	100
CC(C)=CCC/C(C)=C/COc1ccc(OC/C=C(\C)CCC=C(C)C)c(C(=O)NCCN(C(C)C)C(C)C)c1 [Example 17]	100
CCN(CC=C(C)C)c1ccc(C(=O)NCCN(C(C)C)C(C)C)cc1 [Example 28]	27.3
CCN(CC)CCNC(=O)c1cc(OC)c(OC/C=C(\C)CCC=C(C)C)c(OC)c1 [Example 37]	99.3
CCN(CC)CCNC(=O)c1cc(OC)c(OC/C=C(/C)CCC=C(C)C)c(OC)c1 [Example 38]	99.8
COc1cc(C(=O)NCCN(C)C)cc(OC/C=C(\C)CCC=C(C)C)c1OC [Example 42]	98.6

Tested on: Helicobacter pyroli (HP NCTC 11637)
Assay: AHP: Antibacterial Activity Test Against Helicobacter pyroli (agar dilution)
Type: cell-based, Helicobacter pyroli NCTC 11637
Details: Helicobacter, NCTC11637, 168 h; agar dilution, HP NCTC 11637, 7 days
Protocol: AHP: Antibacterial Activity Test Against Helicobacter pyroli The minimum inhibitory concentration (MIC) against Helicobacter pyroli (microacrophilic gram-negative bacterium which is supposed to deeply involve in pathogenesis, relapse, and recrudescence of ulcer, referred to as "HP" in the following) is measured so as to find out compounds which have antibacterial activity against Helicobacter pyroli. MICs were determined by the agar dilution method. The stock culture (-80° C.) of HP NCTC 11637 was thawed and cultured on tripticase soy agar supplemented with 5% sheep blood at 37° C. in an atmosphere of 5% O2, 10% CO2, and 85% N2. Grown colonies were transferred to the same plate and precultured for 3 days under the same condition. […] An appropriate amount of the colony grown on the plate by preculturing was suspended in Mueller Hinton broth till turbidness was recognizable by naked eyes, thereby yielding a bacterial suspension concentrate containing about 10^7 cfu/ml. […] 10 μl of the bacterial suspension for inoculation (about 10^3 cfu) was dropped by dispenser onto an MIC plate for inoculation and cultured for 7 days under the same condition as that of preculture. Thereafter, it was judged whether there had been bacteria growth or not. […] As the result of the comparison of these plates, when the number of the colony on the plate containing the sample compound was less than 90% with respect to that on the control plate, it was represented by "+". Contrary to this, when there was 90% or more, it was represented by "-".

Compound	MIC [µg/mL]
CC(C)=CCC/C(C)=C/COc1ccc(OC/C=C(\C)CCC=C(C)C)c(C(=O)NCCN(C(C)C)C(C)C)c1 [Example 17]	< 3.13

Same assay, conditions: MIC 100 μg/ml or more; colony number vs control plate, 250 mM solution of sample compound

Compound	AHP: growth class where MIC was 100 μg/ml or more
CCN(CC=C(C)C)c1ccc(C(=O)NCCN(C(C)C)C(C)C)cc1 [Example 28]	+ (the number of the colony on the plate containing the sample compound was less than 90% with respect to that on the control plate)
